The compounds below were run on Plasmodium falciparum (assay: GSK_TCMDC: Inhibition of Plasmodium falciparum 3D7 in whole erythrocytes, using parasite LDH activity as an index of growth.). Conditions: Plasmodium falciparum, 3D7.
Type: functional, organism-based

SMILES | XC50 [nM]
CC(C)CNCc1cccc(-c2ccc(CN(CCCN3CCN(C)CC3)C(=O)CCC3CCCC3)cc2)c1 | 877
COCCCNc1sc(S(=O)(=O)c2ccccc2)nc1S(=O)(=O)c1ccc(C)cc1 | 802
CS(=O)(=O)CCNCc1nc(-c2ccc3ncnc(Nc4ccc(OCc5cccc(F)c5)c(Cl)c4)c3c2)cs1 | 771
Cc1csc(NC(=O)c2cn(-c3ccccc3)nc2-c2cccs2)n1 | 911
CC1C(c2cccc(Cl)c2)OCC(C)(C)N1C(=O)CCN1CCCCC1 (stereo unspecified) | 923
COc1ccc(N2CCN(CCCCNC(=O)c3ccc(NC(=O)c4ccc(Cl)cc4)cc3)CC2)c(C)c1 | 758
COc1ccc2nccc(N(C)CC3(O)CCN(CC(O)c4ccc5c(c4)NC(=O)CS5)CC3)c2n1 (stereo unspecified) | 590
COCCNCc1ncsc1-c1ccc2c(Nc3cc(O)c(Cl)cc3F)ccnc2c1 | 547
CCc1nc(N)nc(N)c1-c1ccc(F)c(F)c1 | 417
CCCNCc1ccc(-c2ccc(CNC3Cc4ccccc4C3)cc2)nc1 | 848
Cc1nc2nc(N)nc(N)c2c(C)c1Cc1cccc(C(N)=O)c1 | 1080
Cc1[nH]c(C)c(-c2ccc(OCCCc3ccccn3)cc2)c(=O)c1Br | 212
COc1ccc2ccccc2c1CON1C(=N)N=C(N)NC1(C)C | 28.8
Cc1cccc2nc(-c3ccc(-c4ccc(C(=O)NCCN5CCCC5)cc4)cc3)[nH]c12 | 519
CNC(=O)COC(=O)c1c2c(nc3ccccc13)C(=Cc1ccc3c(c1)OCO3)CCC2 | 643
O=C(NC1CCN(Cc2ccsc2)CC1)c1ccc(-c2cccc(C(F)(F)F)c2)s1 | 1440
O=C(CCCCCNC(=O)c1ccc(O)c(-c2ccc(Cl)c(Cl)c2)c1)NCCN1CCCC1 | 980
COC(=O)c1ccc(NC(=O)Nc2ccc(Cn3ncc(N4CCCNCC4)c(Cl)c3=O)cc2)cc1 | 605
COc1ccc(C2CCN(CCCCNC(=O)c3ccc(NC(=O)c4ccc(Cl)cc4)cc3)CC2)cc1Cl | 843
COc1cc2c(cc1S(=O)(=O)c1ccc(COc3ccc(C(F)(F)F)cc3)cc1)CNCC2 | 746
CCN(CC)CCN(Cc1ccc(-c2ccc(C(F)(F)F)cc2)cc1)C(=O)Cn1c(CCc2cccc(F)c2F)nc(=O)c2cc(F)c(F)cc21 | 833
COc1ccc(Nc2nccc(NCCNC(=O)Nc3cc(C)ccc3C)n2)cc1 | 1050
c1cc(-c2ccc(CNCCCN3CCOCC3)cc2)cc(-c2nc3ccccc3[nH]2)c1 | 207
CCc1ccc(NC(=O)c2ccc(CN3CCCN(Cc4cccc(C)c4)CC3)cc2)cc1 | 1130

SMILES | XC50 [nM]
COc1cc(NC(=O)c2sc(-c3ccc(Cl)cc3)cc2Cl)ccc1OCCN1CCCC1 | 976
CN(C)Cc1c(O)ccc2oc(Cc3ccccc3)cc12 | 912
O=C(Nc1ccncc1)c1cc(C(=O)Nc2ccncc2)cc([N+](=O)[O-])c1 | 614
C=C[C@]1(C)C[C@@H](OC(=O)c2n[nH]c3ccccc3c2=O)[C@]2(C)[C@H](C)CC[C@]3(CCC(=O)[C@H]32)[C@@H](C)[C@@H]1O | 670
CCNc1cc(C)nc(Nc2ccccc2)n1 | 883
CC1(C)N=C(N)N=C(N)N1c1ccc(Oc2ccc(Cl)cc2)c(Cl)c1 | 78.9
Cc1ccc(CNC(=O)c2cc3c(=O)n4ccccc4nc3n(CCCN3CCOCC3)c2=N)cc1 | 1090
Cc1c(CNCCCNc2cc(=O)c3ccccc3[nH]2)sc(-c2ccco2)c1Br | 1020
COc1ccc(NC(=O)/C=C/c2ccccc2Cl)cc1OCCN1CCC(NC2CC2)CC1 | 842
Cc1cccn2c(=O)c3cc(C(=O)NC(C)c4ccccc4)c(=N)n(CCN4CCOCC4)c3nc12 (stereo unspecified) | 823
c1cc(CN2CCN(CCN3CCOCC3)CC2)cc(-c2ccc(-c3nc4ccccc4[nH]3)cc2)c1 | 131
COc1ccc(-c2ccc(NC(=O)c3ccc(C#N)cc3)c(F)c2)cc1CN(C)CCN(C)C | 974
Cc1cc(CNCC(CCNc2cc(=O)c3ccccc3[nH]2)NCc2cc(Br)cc(Br)c2)oc1C (stereo unspecified) | 894
COc1ccc(O)c(Cc2cnc3nc(N)nc(N)c3c2C)c1 | 36.8
COc1ccc2nccc(N3C[C@H]4C[C@@H]3CN4CCNCc3ccc4c(n3)NC(=O)CS4)c2n1 | 973
CC(C)Oc1cc2c(cc1NS(=O)(=O)c1ccc(-c3ccc(Cl)cc3)cc1)CCN(C)CC2 | 1040
COc1cccc(C=CC(=O)NC2CCC(CN3CCC(c4c[nH]c5ccccc45)CC3)CC2)c1OC (stereo unspecified) | 740
O=C(NC1CC1)c1ccc(N2CCC(c3ccccc3)CC2)nc1 | 1110
Cc1ccc(C)c(CN2CCC(CNC(=O)c3cc4ccc5cccnc5c4[nH]3)CC2)c1 | 993
O=C(/C=C/c1ccc(Cl)c(Cl)c1)NCCCCCN1CCC(NC(=O)Nc2cccc(Cl)c2)CC1 | 754
O=S(=O)(NCCN1CCCC1)c1ccc(-c2ccc(CNCc3ccccc3)cc2)cc1 | 775
O=C(Nc1ccc(OC2CCN(Cc3ccc(F)cc3)CC2)c(Cl)c1)c1ccco1 | 303
O=c1nc(NCCCNCc2cc3c(Cl)cc(Cl)cc3[nH]2)[nH]c2ccsc12 | 1120
CCOC(=O)c1cnc2c(OC)cc(OC)c(Cl)c2c1Nc1cccc(C)c1 | 844

SMILES | XC50 [nM]
N#Cc1cccc(-c2cccc(C(=O)NC3CCC(CCN4CCc5ccc(C#N)cc5CC4)CC3)c2)c1 (stereo unspecified) | 265
CC(CNc1nc(NCC(c2ccccc2)c2ccccc2)c2nc[nH]c2n1)c1ccccc1 (stereo unspecified) | 948
Oc1ccc2c(CNC3CCCCC3)c(O)ccc2c1CNC1CCCCC1 | 43.5
Cc1cccc2nc(-c3cccc(-c4ccc(NC(=O)c5cnccc5C(F)(F)F)cc4)c3)[nH]c12 | 695
CCCCn1c(Sc2ccc(C#N)c([N+](=O)[O-])c2)nnc1-c1cc(OC)cc(OC)c1 | 824
COc1ccc(NC(=O)Nc2ccc(-c3cccc(-c4nc5cccc(C)c5[nH]4)c3)cc2)cc1 | 142
CSc1nc2nc(C)c(Cc3cccc(C(F)(F)F)c3)c(C)n2n1 | 193
C=CCOC(=O)N1CCC(CNCc2cccc(-c3cccc(-c4nc5cccc(C)c5[nH]4)c3)c2)C1 (stereo unspecified) | 109
COc1ccc(NC(=O)Nc2ccc(Nc3nc(C)cc(N4CCCC4)n3)cc2)cc1 | 135
Cc1cccc2nc(-c3ccc(-c4ccc(CN5CCC(N)C5)cc4)s3)[nH]c12 (stereo unspecified) | 373
O=C(CNCC1CCCCC1)Nc1cc(C(F)(F)F)ccc1Cl | 982
CCOCc1cn(CC(=O)c2ccc(-c3ccccc3)cc2)c(C)nc1=N | 319
O=C(Nc1ccc(C(=O)OCC2CCCN3CCCCC23)cc1)c1ccc(Cl)c(Cl)c1 (stereo unspecified) | 721
CN1CCN(c2ccnc3ccc(NC(=O)Nc4ccc5c(c4)CCC5=O)cc23)CC1 | 330
Cc1ccc2c(c1)c(-c1ccccc1)c(-c1ccccc1)n2CC(O)CN1CCN(CC=Cc2ccccc2)CC1 (stereo unspecified) | 782
Cn1cncc1CCCN(Cc1ccc(-c2ccc(C(F)(F)F)cc2)cc1)C(=O)Cn1c(CCc2cccc(F)c2F)cc(=O)c2cccnc21 | 1250
CCN(CC)CCN(Cc1ccc(-c2ccc(C(F)(F)F)cc2)cc1)C(=O)Cn1c(CCc2ccc(F)c(F)c2)nc(=O)c2ccccc21 | 1580
O=C(Nc1ccc(OC2CCN(Cc3ccc(F)cc3)CC2)c(Cl)c1)c1ccoc1 | 1180
COc1ccc(CNCc2ccc(F)cc2)cc1-c1ccc(S(=O)(=O)NCCN2CCCC2)cc1 | 1040
Cc1cc(NC(=O)Nc2ccc(C#N)cc2)c2ccccc2n1 | 567
CCCC(C)N(Cc1ccc(C(C)(C)C)cc1)C(=O)c1cccc(C#N)c1 (stereo unspecified) | 1050
CC(=O)Nc1ccc(CN(Cc2cccc(OC(C)(C)C)c2)Cc2ccc3c(c2)OCCO3)cc1 | 136
Cc1cc(C)c(C)c(S(=O)(=O)N2CCCCC(c3ccc(F)c(F)c3)=N2)c1C | 706
N#Cc1cccc(Nc2nccc(NCC(O)c3ccc(C(F)(F)F)cc3)n2)c1 (stereo unspecified) | 556

SMILES | XC50 [nM]
O=C(Nc1cccc(CN2CCCN(Cc3cccc(Cl)c3)CC2)c1)c1ccc(Br)cc1 | 944
CC1(C)CCCN(Cc2c(O)ccc3c(O)c(-c4nc5ccccc5s4)c(=N)oc23)C1 | 337
CCc1cn2c3c(cc(C(=O)N[C@@H](Cc4ccccc4)[C@H](O)CNCCOC)cc13)N(C)S(=O)(=O)CC2 | 954
Cn1c(N)c(C(=O)CSc2ncc(-c3ccc(F)cc3)n2Cc2ccccc2)c(=O)n(C)c1=O | 569
O=C(NCc1ccc(F)cc1)Nc1ccc(-c2cccc(-c3nc4cc(C(F)(F)F)ccc4[nH]3)c2)cc1 | 946
O=C(NC1CCN(Cc2ccccc2)C1)c1ccc(Nc2ccc(Br)cc2)nc1 (stereo unspecified) | 1080
COC(=O)c1ccc(CC(C)NCC(O)c2cccc(C(F)(F)F)c2)cc1C (stereo unspecified) | 974
O=C(/C=C/c1ccc(Cl)c(Cl)c1)NCCCCCCN1CCN(C(=O)Nc2cccc(Cl)c2)CC1 | 981
Clc1cccc(C=NNc2nc(=Nc3ccccc3)[nH]c(=Nc3ccccc3)[nH]2)c1 | 844
O=C(NC1CCN(Cc2ccccc2)CC1)c1ccc2c(=O)n(Cc3ccc(Cl)cc3)c(=S)[nH]c2c1 | 998
CC(=O)c1sc(NC(=O)Nc2ccc(C)cc2C)nc1C | 906
Cc1cccc(NC(=O)N(Cc2cc3cc(C)cc(C)c3[nH]c2=O)C2CC2)c1 | 336
COc1cc(CNCCC(C)C)ccc1OCc1cccc(COc2ccc(CNCCC(C)C)cc2OC)c1 | 492
CCOc1ccc2c(=NN=Cc3c4ccccc4cc4ccccc34)cc(C)[nH]c2c1 | 1070
COc1ccc(O)c(C(=O)c2cc(C(=O)NCCc3ccccc3)c(=O)n(CCc3ccccc3)c2)c1 | 1010
C=C1C(C(=O)OCC)=CN(CC)c2cc(O[C@@H]3CCN(C(=O)OC(C)(C)C)C3)ccc21 | 290
COc1ccccc1/C=C/C(=O)NCCC1CCN(CCCCCNC(=O)/C=C/c2ccc(Cl)c(Cl)c2)CC1 | 807
Cc1nc(-c2ccc(-c3ccc(C(=O)Nc4ccc(I)c(OCCN5CCCC5)c4)cc3)c(C)c2)no1 | 964
CCOC(=O)NC1=NC(=N)N(OCc2ccc(Cl)c(Cl)c2)C(C)(C)N1 | 40.7
CS(=O)(=O)c1ccc2c(c1)CCN(CCC1CCC(NC(=O)C(=Cc3cccc(C#N)c3)c3ccc(-c4ccccc4)cc3)CC1)CC2 (stereo unspecified) | 839
CCC(C)(C)c1ccc2nc(N)nc(N)c2c1C | 5.21
CN1N=C2c3ccccc3CCC2C1c1ccc(C#N)cc1 (stereo unspecified) | 655
CC(C)C[C@@H](NC(=O)NC1CCC(CCN2C3CCC2CC(OC(=O)C(CO)c2ccccc2)C3)CC1)C(O)(c1ccccc1)c1ccccc1 (stereo partly specified) | 1070
Brc1ccc(Nc2ccnc3cc(-c4nccs4)ccc23)cc1Oc1ccnc2cc(-c3nccs3)ccc12 | 1060

From ChEMBL document CHEMBL1157539, “Thousands of chemical starting points for antimalarial lead identification” (Nature, 2010)
